Patent US9586962B2, “Disubstituted octahydropyrrolo [3,4-C] pyrroles as orexin receptor modulators” (Janssen Pharmaceutica NV, priority 2011, dated 2017)

The compounds below were run against T1, human orexin 2 receptor (Homo sapiens (Human), UniProt O43614) (assay: Human orexin 2 receptor radioligand binding ([3H]EMPA competition, HEK293 cells)). Conditions: HEK293 cells expressing human orexin-2 receptor, read-out: OR 2 Ki.
T1 sequence (O43614 whole entry): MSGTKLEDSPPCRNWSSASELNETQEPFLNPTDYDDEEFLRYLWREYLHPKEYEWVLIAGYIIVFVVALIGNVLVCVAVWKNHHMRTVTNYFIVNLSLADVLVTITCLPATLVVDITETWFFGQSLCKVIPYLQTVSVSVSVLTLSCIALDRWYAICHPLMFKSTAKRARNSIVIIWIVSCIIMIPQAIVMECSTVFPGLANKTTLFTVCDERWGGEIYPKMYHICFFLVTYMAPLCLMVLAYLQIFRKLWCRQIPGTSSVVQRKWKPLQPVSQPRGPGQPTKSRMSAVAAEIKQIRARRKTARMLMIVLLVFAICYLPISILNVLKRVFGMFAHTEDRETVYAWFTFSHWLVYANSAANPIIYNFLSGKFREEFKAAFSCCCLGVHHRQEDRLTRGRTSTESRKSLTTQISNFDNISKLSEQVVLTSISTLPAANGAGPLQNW

Row | Ki | Structure (SMILES)
1 | 19 nM | Cc1cc(C)nc(N2CC3CN(C(=O)c4c(F)cccc4-c4ncc(C)s4)CC3C2)n1 (stereo not shown) [Example 477, 2-(4,6-Dimethylpyrimidin-2-yl)-5-{[2-fluoro-6-(5-methyl-1,3-thiazol-2-yl)phenyl]carbonyl}octahydropyrrolo[3,4-c]pyrrole]
2 | 1050 nM | Cc1cc(C)nc(N2CC3CN(C(=O)c4nc(C)ccc4-c4ncc(C)o4)CC3C2)n1 (stereo not shown) [Example 422, 2-(4,6-Dimethylpyrimidin-2-yl)-5-{[6-methyl-3-(5-methyl-1,3-oxazol-2-yl)pyridin-2-yl]carbonyl}octahydropyrrolo[3,4-c]pyrrole]
3 | 394 nM | Cc1cc(C)nc(N2CC3CN(C(=O)c4ccccc4-c4cn(Cc5ccccc5)nn4)CC3C2)n1 (stereo not shown) [Example 434, 2-{[2-(1-Benzyl-1H-1,2,3-triazol-4-yl)phenyl]carbonyl}-5-(4,6-dimethylpyrimidin-2-yl)octahydropyrrolo[3,4-c]pyrrole]
4 | 230 nM | Cc1cc(C)nc(N2CC3CN(C(=O)c4c(F)cccc4-c4ccc(Cl)cn4)CC3C2)n1 (stereo not shown) [Example 484, 2-{[2-(5-Chloropyridin-2-yl)-6-fluorophenyl]carbonyl}-5-(4,6-dimethylpyrimidin-2-yl)octahydropyrrolo[3,4-c]pyrrole]
5 | 164 nM | Cc1nc(N(C)C)cc(N2CC3CN(C(=O)c4cccc(F)c4-n4nccn4)CC3C2)n1 (stereo not shown) [Example 416, 6-[5-{[3-Fluoro-2-(2H-1,2,3-triazol-2-yl)phenyl]carbonyl}hexahydropyrrolo[3,4-c]pyrrol-2(1H)-yl]-N,N,2-trimethylpyrimidin-4-amine]
6 | 54 nM | Cc1cc(C)nc(N2CC3CN(C(=O)c4c(F)cccc4-c4cncs4)CC3C2)n1 (stereo not shown) [Example 487, 2-(4,6-Dimethylpyrimidin-2-yl)-5-{[2-fluoro-6-(1,3-thiazol-5-yl)phenyl]carbonyl}octahydropyrrolo[3,4-c]pyrrole]
7 | 84 nM | CSc1nccc(-c2cccc(F)c2C(=O)N2CC3CN(c4nc(C)cc(C)n4)CC3C2)n1 (stereo not shown) [Example 485, 2-(4,6-Dimethylpyrimidin-2-yl)-5-({2-fluoro-6-[2-(methylsulfanyl)pyrimidin-4-yl]phenyl}carbonyl)octahydropyrrolo[3,4-c]pyrrole]
8 | 3810 nM | Cc1cc(C)nc(N2CC3CN(C(=O)c4c(F)cccc4C4=CC(=O)OC4)CC3C2)n1 (stereo not shown) [Example 480, 4-(2-{[5-(4,6-Dimethylpyrimidin-2-yl)hexahydropyrrolo[3,4-c]pyrrol-2(1H)-yl]carbonyl}-3-fluorophenyl)furan-2(5H)-one]

Each compound was assayed against T1, human orexin 2 receptor (assay: Human orexin 2 receptor Ca2+ mobilization assay (FLIPR, PFSK cells, orexin B 100 nM)). Conditions: modified Cheng-Prusoff correction, read-out: OR 2 Kb.
Assay type: cell-based

Row | Kb | Structure (SMILES)
9 | 63 nM | O=C(c1ccccc1-c1cccs1)N1CC2CN(c3nc4ccccc4o3)CC2C1 (stereo not shown) [Example 139, 2-{5-[(2-Thiophen-2-ylphenyl)carbonyl]hexahydropyrrolo[3,4-c]pyrrol-2(1H)-yl}-1,3-benzoxazole]
10 | 25 nM | COc1cccc(N2CC3CN(C(=O)c4ccccc4-c4cccs4)CC3C2)n1 (stereo not shown) [Example 137, 2-(6-Methoxypyridin-2-yl)-5-[(2-thiophen-2-ylphenyl)carbonyl]octahydro pyrrolo[3,4-c]pyrrole]
11 | 99 nM | Cc1ccc2ccccc2c1C(=O)N1CC2CN(c3nccc(-c4ccccc4)n3)CC2C1 (stereo not shown) [Example 25, 2-[(2-Methylnaphthalen-1-yl)carbonyl]-5-(4-phenylpyrimidin-2-yl)octahydropyrrolo[3,4-c]pyrrole]
12 | 40 nM | Cc1ccnc(N2CC3CN(C(=O)c4ccccc4-n4nccn4)CC3C2)n1 (stereo not shown) [Example 135, 2-(4-Methylpyrimidin-2-yl)-5-{[2-(2H-1,2,3-triazol-2-yl)phenyl]carbonyl}octahydro pyrrolo[3,4-c]pyrrole]
13 | 158 nM | O=C(c1ccccc1-c1ccccc1)N1CC2CN(c3nc4ccc(F)cc4s3)CC2C1 (stereo not shown) [Example 176, 2-[5-(Biphenyl-2-ylcarbonyl)hexahydropyrrolo[3,4-c]pyrrol-2(1H)-yl]-6-fluoro-1,3-benzothiazole]
14 | 40 nM | COc1ccnc(N2CC3CN(C(=O)c4cc(F)ccc4-c4ncccn4)CC3C2)n1 (stereo not shown) [Example 150, 2-[(5-Fluoro-2-pyrimidin-2-ylphenyl)carbonyl]-5-(4-methoxypyrimidin-2-yl)octahydropyrrolo[3,4-c]pyrrole]
15 | 20 nM | Cc1cnc(C)c(N2CC3CN(C(=O)c4ccccc4-c4cccs4)CC3C2)n1 (stereo not shown) [Example 63, 2-(3,6-Dimethylpyrazin-2-yl)-5-[(2-thiophen-2-ylphenyl)carbonyl]octahydro-pyrrolo[3,4-c]pyrrole]
16 | 11 nM | O=C(c1c(F)cccc1-n1nccn1)N1CC2CN(c3cnc4cc(F)c(F)cc4n3)CC2C1 (stereo not shown) [Example 246, (5-(6,7-Difluoroquinoxalin-2-yl)hexahydropyrrolo[3,4-c]pyrrol-2(1H)-yl)(2-fluoro-6-(2H-1,2,3-triazol-2-yl)phenyl)methanone]
17 | 63 nM | O=C(c1ccccc1-c1nnc[nH]1)N1CC2CN(c3cnc4ccccc4n3)CC2C1 (stereo not shown) [Example 85, 2-[5-{[2-(4H-1,2,4-Triazol-3-yl)phenyl]carbonyl}hexahydropyrrolo[3,4-c]pyrrol-2(1H)-yl]quinoxaline]
18 | 16 nM | Cc1cc(C)nc(N2CC3CN(C(=O)c4ccccc4OC(F)(F)F)CC3C2)n1 (stereo not shown) [Example 274, (5-(4,6-Dimethylpyrimidin-2-yl)hexahydropyrrolo[3,4-c]pyrrol-2(1H)-yl)(2-(trifluoromethoxy)phenyl)methanone]
19 | 8 nM | Cc1cc(N2CC3CN(C(=O)c4c(F)cccc4-c4ncccn4)CC3C2)nc(C(F)(F)F)n1 (stereo not shown) [Example 117, 2-[(2-Fluoro-6-pyrimidin-2-ylphenyl)carbonyl]-5-[6-methyl-2-(trifluoromethyl)pyrimidin-4-yl]octahydropyrrolo[3,4-c]pyrrole]
20 | 12 nM | Cc1ccc(-c2c(F)cccc2C(=O)N2CC3CN(c4nc(C)cc(C)n4)CC3C2)nc1 (stereo not shown) [Example 374, (5-(4,6-Dimethylpyrimidin-2-yl)hexahydropyrrolo[3,4-c]pyrrol-2(1H)-yl)(3-fluoro-2-(5-methylpyridin-2-yl)phenyl)methanone]
21 | 40 nM | O=C(c1ccccc1-n1nccn1)N1CC2CN(c3nccc(C(F)(F)F)n3)CC2C1 (stereo not shown) [Example 153, 2-{[2-(2H-1,2,3-Triazol-2-yl)phenyl]carbonyl}-5-[4-(trifluoromethyl)pyrimidin-2-yl]octahydropyrrolo[3,4-c]pyrrole]
22 | 5 nM | COc1ccc(C(=O)N2CC3CN(c4nc(C)c(F)c(C)n4)CC3C2)c(-n2nccn2)c1 (stereo not shown) [Example 379, 2-(5-Fluoro-4,6-dimethylpyrimidin-2-yl)-5-{[4-methoxy-2-(2H-1,2,3-triazol-2-yl)phenyl]carbonyl}octahydropyrrolo[3,4-c]pyrrole]
23 | 25 nM | Cc1cnc(C)c(N2CC3CN(C(=O)c4ccc(F)cc4-n4nccn4)CC3C2)n1 (stereo not shown) [Example 104, 2-(3,6-Dimethylpyrazin-2-yl)-5-{[4-fluoro-2-(2H-1,2,3-triazol-2-yl)phenyl]carbonyl}octahydropyrrolo[3,4-c]pyrrole]
24 | 79 nM | Cc1cc(C)nc(N2CC3CN(C(=O)c4nc(C)sc4-c4ccccc4F)CC3C2)n1 (stereo not shown) [Example 132, 2-(4,6-Dimethylpyrimidin-2-yl)-5-{[5-(2-fluorophenyl)-2-methyl-1,3-thiazol-4-yl]carbonyl}octahydropyrrolo[3,4-c]pyrrole]
25 | 16 nM | O=C(c1cc(F)ccc1-c1ncccn1)N1CC2CN(c3cnc4ccccc4n3)CC2C1 (stereo not shown) [Example 146, 2-{5-[(5-Fluoro-2-pyrimidin-2-ylphenyl)carbonyl]hexahydropyrrolo[3,4-c]pyrrol-2(1H)-yl}quinoxaline]
26 | 32 nM | COc1cc(N2CC3CN(C(=O)c4cc(F)ccc4-n4nccn4)CC3C2)nc(N(C)C)n1 (stereo not shown) [Example 4, 4-[5-{[5-Fluoro-2-(2H-1,2,3-triazol-2-yl)phenyl]carbonyl}hexahydropyrrolo[3,4-c]pyrrol-2(1H)-yl]-6-methoxy-N,N-dimethylpyrimidin-2-amine]
27 | 13 nM | Cc1cc(N(C)C)nc(N2CC3CN(C(=O)c4ccccc4-n4nccn4)CC3C2)n1 (stereo not shown) [Example 119, N,N,6-Trimethyl-2-[5-{[2-(2H-1,2,3-triazol-2-yl)phenyl]carbonyl}hexahydropyrrolo[3,4-c]pyrrol-2(1H)-yl]pyrimidin-4-amine]
28 | 126 nM | O=C(c1ccccc1-c1ccccc1)N1CC2CN(c3cnc4ccccc4n3)CC2C1 (stereo not shown) [Example 168, 2-[5-(Biphenyl-2-ylcarbonyl)hexahydropyrrolo[3,4-c]pyrrol-2(1H)-yl]quinoxaline]
29 | 79 nM | Cc1ccc(-n2nccn2)c(C(=O)N2CC3CN(c4nc(C)cnc4C)CC3C2)c1 (stereo not shown) [Example 123, [5-(3,6-Dimethyl-pyrazin-2-yl)-hexahydro-pyrrolo[3,4-c]pyrrol-2-yl]-(5-methyl-2-[1,2,3]triazol-2-yl-phenyl)-methanone]
30 | 5 nM | COc1ccc(C(=O)N2CC3CN(c4ncc(C)c(C)n4)CC3C2)c(-n2nccn2)c1 (stereo not shown) [Example 380, 2-(4,5-Dimethylpyrimidin-2-yl)-5-{[4-methoxy-2-(2H-1,2,3-triazol-2-yl)phenyl]carbonyl}octahydropyrrolo[3,4-c]pyrrole]
31 | 20 nM | CN(C)c1nc(N2CC3CN(C(=O)c4c(F)cccc4-n4nccn4)CC3C2)cc(C(F)(F)F)n1 (stereo not shown) [Example 106, 4-[5-{[2-Fluoro-6-(2H-1,2,3-triazol-2-yl)phenyl]carbonyl}hexahydropyrrolo[3,4-c]pyrrol-2(1H)-yl]-N,N-dimethyl-6-(trifluoromethyl)pyrimidin-2-amine]
32 | 25 nM | CN(C)c1cc(N2CC3CN(C(=O)c4ccc(F)cc4-n4nccn4)CC3C2)nc(C(F)(F)F)n1 (stereo not shown) [Example 6, 6-[5-{[4-Fluoro-2-(2H-1,2,3-triazol-2-yl)phenyl]carbonyl}hexahydropyrrolo[3,4-c]pyrrol-2(1H)-yl]-N,N-dimethyl-2-(trifluoromethyl)pyrimidin-4-amine]
33 | 16 nM | Cc1cnc(C)c(N2CC3CN(C(=O)c4ccccc4-n4nccn4)CC3C2)n1 (stereo not shown) [Example 155, 2-(3,6-Dimethylpyrazin-2-yl)-5-{[2-(2H-1,2,3-triazol-2-yl)phenyl]carbonyl}octa hydropyrrolo[3,4-c]pyrrole]
34 | 16 nM | COc1ccnc(N2CC3CN(C(=O)c4ccccc4-n4nccn4)CC3C2)n1 (stereo not shown) [Example 156, 2-(4-Methoxypyrimidin-2-yl)-5-{[2-(2H-1,2,3-triazol-2-yl)phenyl]carbonyl}octa hydropyrrolo[3,4-c]pyrrole]
